Data as given in patent publication US10662214B2, “Compound of 4′-thionucleoside, as well as preparation method therefor, pharmaceutical composition thereof and application thereof” (Sichuan Kelun-Biotech Biopharmaceutical Co., Ltd., priority 2015, dated 2020).

What was measured:
[1] = Intravenous toxicity test in mice (administration for 7 days); type: in vivo; details: mouse, in vivo, iv
Description: This test was used to investigate the toxic reactions after intravenous administration of compound C8 to normal KM mice for 7 consecutive days.
KM mice passing the quarantine control were randomized into 4 groups (3 mice/gender/group). The test compound and vehicle control were formulated according to Experimental example 2. The mortality, appearance, behavior, mental status, secretion and excreta etc. of the animals were observed every day for 7 consecutive days after the administration, and the animals were anatomized on day 8.

[2] = Oral toxicity test in mice (administration for 7 days); type: in vivo; details: once per day for 7 days
Experimental: Normal Male and female Kunming mice (SPF grade, obtained from Laboratory Animal Center in Sichuan Academy of Chinese Medicine Science) were randomized by weight into groups. The test compound and vehicle control were formulated according to Experimental example 2. The dosage volume was 10 mL/kg, and the administration was performed by oral gavage, once per day for 7 consecutive days.

[3] = test system: pancreatic cancer cell BxPC-3; experiment: CCK-8 inhibition of proliferation, BxPC-3; type: cell-based, human; details: for inhibitory effect on pancreatic cancer cell BxPC-3 (in words): FIG. 1: 5-10000 nM; for IC50: Homo sapiens, BXPC-3, CCK-8, 72 h incubation
Experimental: (§1) The tumor cell lines employed in the present experiment were gastric cancer cell NCI-N87 (obtained from Guangzhou Jennio Biological Technology Co., Ltd.), colorectal cancer cell HCT-116 (obtained from Chengdu Center for Safety Evaluation of Drugs), colorectal cancer cell HCT-15 and pancreatic cancer cell BxPC-3 (both obtained from ATCC, US).
(§2) Each of the cell lines is cultured in a corresponding culture medium (RPMI-1640, IMDM and L-15 culture medium (manufacturer: Gibco)) supplemented with 10% heat inactivated Fetal Bovine Serum (manufacturer: Sigma), in an incubator at 37° C. and 5% CO2.
(§3) For each type of tumor cells, a blank group, a vehicle group (containing 1‰ DMSO) and 8 groups with a test compound at concentrations of 5 nM, 10 nM, 50 nM, 100 nM, 500 nM, 1000 nM, 5000 nM, and 10000 nM (with each concentration in triplicate) were set.
(§4) Appropriate amounts of test compounds were weighted, and dissolved in DMSO (cell culture grade, Sigma) to prepare stock solutions of various concentration gradients according to desired concentrations. During incubation, they were diluted by 1000 times as necessary, and incubation solutions with various drug concentrations were prepared (compound stock solution:medium containing 2% FBS=1:1000).
(§5) The experiment was performed according to a CCK-8 method as described below. Cancer cells to be tested were seeded in a 96-well culture plate at a concentration of 5˜10×10^4/mL (100 μL/well), followed by incubation at 37° C. and 5% CO2 for 24 h. The medium was discarded, and incubation solutions with different drug concentrations (200 μL) were respectively added to each well, and the cells were further incubated for 72 h. After the incubation, a CCK-8 solution (20 μL/well) was added to each well to be tested, and the incubation was continued for 4 h in the incubator. OD values at two wavelengths (Detection wavelength: 450 nm, and reference wavelength: 650 nm) were determined on a multifunctional fully-automatic microplate reader.
(§6) The inhibitory rate of tumor cell growth was calculated according to the following formula: Inhibitory rate=[(ODvehicle−ODblank)−(ODdrug−ODblank)]/(ODvehicle−ODblank)*100%
(§7) Based on the inhibitory rate, a concentration-inhibitory rate curve was fit using GraphPad prism 5.0 software, and IC50 was calculated.

[4] = test system: gastric cancer cell NCI-N87; experiment: CCK-8 inhibition of proliferation, NCI-N87; type: cell-based, human; details: for inhibitory effect on gastric cancer cell NCI-N87 (in words): FIG. 1: 5-10000 nM; for IC50: Homo sapiens, NCI-N87, CCK-8, 72 h incubation
Experimental: as §1, §2, §3, §4, §5, §6, §7

[5] = test system: colorectal cancer cell HCT-15; experiment: CCK-8 inhibition of proliferation, HCT-15; type: cell-based, human; details: for inhibitory effect on colorectal cancer cell HCT-15 (in words): FIG. 1: 5-10000 nM; for IC50: Homo sapiens, HCT-15, CCK-8, 72 h incubation
Experimental: as §1, §2, §3, §4, §5, §6, §7

Nc1ccn([C@@H]2S[C@H](CO)[C@@H](O)[C@@H]2F)c(=O)n1 [Compound A, 1-((2R,3S,4S,5R)-3-fluoro-4-hydroxy-5-(hydroxymethyl)tetrahydrothiophen-2-yl)cytosine, reference compound]
body weight decrease on day 8, female mice [1]: 20.2%
body weight decrease on day 8, male mice [1]: 18.1%
symptoms observed on day 8 ([1]; 20 mg/kg): a hunched stance and weight loss
dosage at which death of animals occurred ([2]; oral gavage): about 77 μmol/kg
Results: mortality (3 Male + 3 Female) ([2]; ~77 μmol/kg oral gavage): symptoms, and two

C[C@H](NP(=O)(OC[C@H]1S[C@@H](n2ccc(N)nc2=O)[C@@H](F)[C@@H]1O)Oc1ccccc1)C(=O)OCc1ccccc1 (stereo partly drawn) [Compound C2, (S)-benzyl 2-(((((2R,3S,4S,5R)-5-(4-amino-2-oxopyrimidin-1(2H)-yl)-4-fluoro-3-hydroxytetrahydrothiophen-2-yl)methoxy)(phenoxy)phosphoryl)amino)propanoate]
inhibitory effect on pancreatic cancer cell BxPC-3 (in words) [3]: excellent inhibitory effects
IC50 [3]: 1280 nM
inhibitory effect on gastric cancer cell NCI-N87 (in words) [4]: excellent inhibitory effects
IC50 [4]: 250 nM
inhibitory effect on colorectal cancer cell HCT-15 (in words) [5]: excellent inhibitory effects
IC50 [5]: 2970 nM

CC(C)OC(=O)[C@H](C)N[P@@](=O)(OC[C@H]1S[C@@H](n2ccc(N)nc2=O)[C@@H](F)[C@@H]1O)Oc1ccc2c(c1)OCO2 [Compound C13, (S)-isopropyl 2-(((R)-(((2R,3S,4S,5R)-5-(4-amino-2-oxopyrimidin-1 (2H)-yl)-4-fluoro-3-hydroxytetrahydrothiophen-2-yl)methoxy)(benzo[d][1,3]dioxol-5-yloxy)phosphoryl)amino)propanoate]
inhibitory effect on gastric cancer cell NCI-N87 (in words) [4]: excellent inhibitory effect
IC50 [4]: 550 nM

CC(C)OC(=O)[C@H](C)N[P@](=O)(OC[C@H]1S[C@@H](n2ccc(N)nc2=O)[C@@H](F)[C@@H]1O)Oc1ccc2c(c1)OCO2 [Compound C14, (S)-isopropyl 2-(((S)-(((2R,3S,4S,5R)-5-(4-amino-2-oxopyrimidin-1(2H)-yl)-4-fluoro-3-hydroxytetrahydrothiophen-2-yl)methoxy)(benzo[d][1,3]dioxol-5-yloxy)phosphoryl)amino)propanoate]
inhibitory effect on pancreatic cancer cell BxPC-3 (in words) [3]: excellent inhibitory effects
IC50 [3]: 2820 nM
inhibitory effect on gastric cancer cell NCI-N87 (in words) [4]: excellent inhibitory effects
IC50 [4]: 180 nM
inhibitory effect on colorectal cancer cell HCT-15 (in words) [5]: excellent inhibitory effects
IC50 [5]: 9780 nM

C[C@H](NP(=O)(OC[C@H]1S[C@@H](n2ccc(N)nc2=O)[C@@H](F)[C@@H]1O)Oc1ccccc1)C(=O)OCc1ccc(F)cc1 (stereo partly drawn) [Compound C15, (2S)-4-fluorobenzyl 2-(((((2R,3S,4S,5R)-5-(4-amino-2-oxopyrimidin-1(2H)-yl)-4-fluoro-3-hydroxytetrahydrothiophen-2-yl)methoxy)(phenoxy)phosphoryl)amino)propanoate]
inhibitory effect on pancreatic cancer cell BxPC-3 (in words) [3]: excellent inhibitory effects
IC50 [3]: 1800 nM
inhibitory effect on gastric cancer cell NCI-N87 (in words) [4]: excellent inhibitory effects
IC50 [4]: 240 nM
inhibitory effect on colorectal cancer cell HCT-15 (in words) [5]: excellent inhibitory effects
IC50 [5]: 4080 nM

CC(C)OC(=O)[C@H](C)NP(=O)(OC[C@H]1S[C@@H](n2ccc(N)nc2=O)[C@@H](F)[C@@H]1O)Oc1cccc2c1OCCO2 (stereo partly drawn) [Compound C16, (S)-isopropyl 2-(((((2R,3S,4S,5R)-5-(4-amino-2-oxopyrimidin-1(2H)-yl)-4-fluoro-3-hydroxytetrahydrothiophen-2-yl)methoxy)((2,3-dihydrobenzo[b][1,4]dioxin-5-yl)oxy)phosphoryl)amino)propanoate]
inhibitory effect on pancreatic cancer cell BxPC-3 (in words) [3]: excellent inhibitory effects
IC50 [3]: 1150 nM
inhibitory effect on gastric cancer cell NCI-N87 (in words) [4]: excellent inhibitory effects
IC50 [4]: 300 nM

CC(C)OC(=O)[C@H](C)NP(=O)(OC[C@H]1S[C@@H](n2ccc(N)nc2=O)[C@@H](F)[C@@H]1O)Oc1ccc(F)c2c1CCO2 (stereo partly drawn) [Compound C17, (S)-isopropyl 2-(((((2R,3S,4S,5R)-5-(4-amino-2-oxopyrimidin-1(2H)-yl)-4-fluoro-3-hydroxytetrahydrothiophen-2-yl)methoxy)((7-fluoro-2,3-dihydrobenzofuran-4-yl)oxy)phosphoryl)amino)propanoate]
inhibitory effect on pancreatic cancer cell BxPC-3 (in words) [3]: excellent inhibitory effects
IC50 [3]: 3800 nM
inhibitory effect on gastric cancer cell NCI-N87 (in words) [4]: excellent inhibitory effects
IC50 [4]: 630 nM

CC(C)OC(=O)[C@H](C)NP(=O)(OC[C@H]1S[C@@H](n2ccc(N)nc2=O)[C@@H](F)[C@@H]1O)Oc1ccc2c(c1)OCC2 (stereo partly drawn) [Compound C18, (S)-isopropyl 2-(((((2R,3S,4S,5R)-5-(4-amino-2-oxopyrimidin-1(2H)-yl)-4-fluoro-3-hydroxytetrahydrothiophen-2-yl)methoxy)((2,3-dihydrobenzofuran-6-yl)oxy)phosphoryl)amino)propanoate]
inhibitory effect on pancreatic cancer cell BxPC-3 (in words) [3]: excellent inhibitory effect
IC50 [3]: 2740 nM

CC(C)OC(=O)[C@H](C)NP(=O)(OC[C@H]1S[C@@H](n2ccc(N)nc2=O)[C@@H](F)[C@@H]1O)Oc1ccc2ccoc2c1 (stereo partly drawn) [Compound C19, (S)-isopropyl 2-(((((2R,3S,4S,5R)-5-(4-amino-2-oxopyrimidin-1(2H)-yl)-4-fluoro-3-hydroxytetrahydrothiophen-2-yl)methoxy)(benzofuran-6-yloxy)phosphoryl)amino)propanoate]
inhibitory effect on pancreatic cancer cell BxPC-3 (in words) [3]: excellent inhibitory effects
IC50 [3]: 680 nM
inhibitory effect on gastric cancer cell NCI-N87 (in words) [4]: excellent inhibitory effects
IC50 [4]: 350 nM
